Key:
[1] = test system: Septoria tritici; assay: Curative control of leaf blotch on wheat (Septtr K7), greenhouse; assay type: in vivo; conditions: untreated control 90
[2] = test system: Septoria tritici; assay: Preventative control of leaf blotch on wheat, inoculation next day (Septtr P1), greenhouse; assay type: in vivo; conditions: for Disease (%) at 150 pm Septtr P1: 150 ppm, Use Example 9, untreated control 90; for Disease(%) at 150 ppm Septtr P1: Use Example 6, untreated control 80
[3] = test system: Septoria tritici; assay: Preventative control of leaf blotch on wheat, inoculation seven days later (Septtr P7), greenhouse; assay type: in vivo
[4] = test system: Pyrenophora teres; assay type: cell-based; conditions: 32 ppm; Use Example 10 M6
[5] = test system: Alternaria solani; assay: Preventative fungicidal control of early blight on tomatoes, inoculation seven days later (Alteso P7), greenhouse; assay type: in vivo; conditions: tomato; for Disease (%) at 63 ppm Alteso P7: untreated control 100; for Disease (%) at 16 ppm Alteso P7: untreated control 90
[6] = test system: Uncinula necator; assay: Control of powdery mildew on grape (Uncine P3), greenhouse; assay type: in vivo; conditions: untreated control 100
Experimental: Preventative Control of Leaf Blotch on Wheat Caused by Septoria tritici (Septtr P7) Grape cuttings were grown in pots to the 4 to 5 leaf stage. […] Three days later the treated plants were inoculated with spores of Uncinula necator by shaking heavily infestated stock plants over the treated pots. […] Preventative Fungicidal Control of Early Blight on Tomatoes (Alternaria solani) (Alteso P7)

[7] = test system: Pyricularia oryzae; assay: microbe, parasite or virus in culture; assay type: cell-based; conditions: for activity at 2 ppm: Pyricularia oryzae, read-out: growth (relative growth in % of control)
[8] = Use Example 11, untreated control 90
[9] = Use Example 8, untreated control 80
[10] = Use Example 6, untreated control 80

COC(Cn1cncn1)c1ccc(Oc2ccc(Cl)cc2)cc1Cl (centres unmarked) [DE3801233 compound 2, reference compound]
Disease (%) at 16 ppm Septtr K7 [1]: 80%
Disease (%) at 150 pm Septtr P1 [2]: 30%
Disease (%) at 16 ppm Septtr P7 [3, 8]: 90%

OC(Cn1cncn1)c1ccc(Oc2ccc(Cl)cc2Cl)cc1C(F)(F)F (centres unmarked) [I-13]
growth (relative growth in % of control) [4]: 1%

OC(Cn1cncn1)c1ccc(Oc2ccc(Cl)cc2)cc1C(F)(F)F (centres unmarked) [compound I-1]
Disease(%) at 150 ppm Septtr P1 [2]: 0%
Disease (%) at 63 ppm Alteso P7 [5]: 3%
Disease (%) at 16 ppm Uncine P3 [6]: 0%
Growth (%) at 0.5 ppm Pyrior ([7]; Use Example 7): 47%
Disease (%) at 16 ppm Septtr P7 [3, 9]: 2%
Disease (%) at 16 ppm Septtr P7 [3, 8]: 3%

CC(O)(Cn1cncn1)c1ccc(Oc2ccc(Cl)cc2)cc1C(F)(F)F (centres unmarked) [compound I-2, 2-[4-(4-chloro-phenoxy)-2-trifluoromethyl-phenyl]-1-[1,2,4]triazol-1-yl-propan-2-ol]
Disease (%) at 16 ppm Alteso P7 [5]: 15%
Growth (%) at 0.5 ppm Pyrior ([7]; Use Example 6): 68%
Growth (%) at 0.5 ppm Pyrior ([7]; Use Example 7): 68%
Disease (%) at 16 ppm Septtr P7 [3, 10]: 10%

CCC(O)(Cn1cncn1)c1ccc(Oc2ccc(Cl)cc2)cc1C(F)(F)F (centres unmarked) [compound I-3, 2-[4-(4-chloro-phenoxy)-2-trifluoromethyl-phenyl]-1[1,2,4]triazol-1-yl-butan-2-ol]
Growth (%) at 0.5 ppm Pyrior ([7]; Use Example 7): 58%
activity at 2 ppm [7]: ≤ 4%

CCCC(O)(Cn1cncn1)c1ccc(Oc2ccc(Cl)cc2)cc1C(F)(F)F (centres unmarked) [compound I-4]
Growth (%) at 0.5 ppm Pyrior ([7]; Use Example 7): 19%
Disease (%) at 16 ppm Septtr P7 [3, 9]: 25%

CC#CC(O)(Cn1cncn1)c1ccc(Oc2ccc(Cl)cc2)cc1C(F)(F)F (centres unmarked) [compound I-6, 2-[4-(4-chlorophenoxy)-2-(trifluoromethyl)phenyl]-1-(1,2,4-triazol-1-yl)pent-3-yn-2-ol]
Growth (%) at 0.5 ppm Pyrior ([7]; Use Example 7): 37%
Disease (%) at 16 ppm Septtr P7 [3, 9]: 0%
melting point: 137 °C

CC(C)C(O)(Cn1cncn1)c1ccc(Oc2ccc(Cl)cc2)cc1C(F)(F)F (centres unmarked) [compound I-7, 2-[4-(4-chlorophenoxy)-2-(trifluoromethyl)phenyl]-3-methyl-1-(1,2,4-triazol-1-yl)butan-2-ol]
melting point: 114 °C

COC(C)(Cn1cncn1)c1ccc(Oc2ccc(Cl)cc2)cc1C(F)(F)F (centres unmarked) [compound I-10, 1-[2-[4-(4-chlorophenoxy)-2-(trifluoromethyl)phenyl]-2-methoxy-propyl]-1,2,4-triazole]
activity at 2 ppm [7]: ≤ 4%

COC(Cn1cncn1)c1ccc(Oc2ccc(Cl)cc2)cc1C(F)(F)F (centres unmarked) [compound I-14]
Disease (%) at 16 ppm Septtr K7 [1]: 20%
Disease (%) at 150 pm Septtr P1 [2]: 0%
Disease (%) at 16 ppm Septtr P7 [3, 8]: 15%

CC(O)(Cn1cncn1)c1ccc(Oc2ccc(F)cc2)cc1C(F)(F)F (centres unmarked) [compound I-16]
Disease (%) at 150 pm Septtr P1 [2]: 0%

OC(Cn1cncn1)c1ccc(Oc2ccc(Cl)cc2)cc1Cl (centres unmarked) [compound V6, reference compound]
Disease(%) at 150 ppm Septtr P1 [2]: 60%
Disease (%) at 63 ppm Alteso P7 [5]: 40%
Disease (%) at 16 ppm Uncine P3 [6]: 40%
Disease (%) at 16 ppm Septtr P7 [3, 8]: 30%

CC(O)(Cn1cncn1)c1ccc(Oc2ccc(Cl)cc2)cc1Cl (centres unmarked) [compound V18, reference compound]
Disease (%) at 16 ppm Alteso P7 [5]: 60%
Growth (%) at 0.5 ppm Pyrior ([7]; Use Example 6): 82%
Growth (%) at 0.5 ppm Pyrior ([7]; Use Example 7): 82%
Disease (%) at 16 ppm Septtr P7 [3, 10]: 60%
Disease (%) at 16 ppm Septtr P7 [3, 8]: 67%

CC(O)(Cn1cncn1)c1ccc(Oc2ccc(F)cc2)cc1Cl (centres unmarked) [compound V19, reference compound]
Disease (%) at 150 pm Septtr P1 [2]: 40%
Disease (%) at 16 ppm Septtr P7 [3, 9]: 60%
